Among the test systems are MOLT-4 leukemia; SNB-19 CNS; NCI-H226 lung; ACHN renal; HCC-2998 colon; SNB-75 CNS; SF-268 CNS; K-562 leukemia; MDA-MB-435.
Test in all cases: growth of human tumour cells (NCI), 48 h

Experimental findings from PubChem BioAssay (NCI) are described below.

Each structure is given as a SMILES string.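 Test compounds were applied to cells in 96-well plates for 48 hours at 5 doses. Here, GI50 denotes the concentration required for 50% inhibition of growth. TGI denotes the concentration required for complete inhibition of growth.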

For the molecule `N#CC(c1ccc(Cl)cc1)c1cccc(Cl)n1` (stereo not drawn), the TGI in the assay on MOLT-4 leukemia was over 100 µM; in the assay on SNB-19 CNS it was over 100 µM; in the assay on NCI-H226 lung, over 100 µM; with ACHN renal it was over 100 µM; in the assay on HCC-2998 colon it was over 100 µM; in the assay with SNB-75 CNS it was 84.3 µM. Also, the TGI in the assay with SF-268 CNS and in the assay with K-562 leukemia was over 100 µM each time.
On to `CO/C=C/c1cc2c(cc1C(OC)OC)OCO2`, for which the TGI was over 100 µM in the assay with MOLT-4 leukemia; over 100 µM with SNB-19 CNS; over 100 µM with NCI-H226 lung; over 100 µM with ACHN renal; over 100 µM with HCC-2998 colon; 36.8 µM in the assay with SNB-75 CNS. The TGI in the assay on SF-268 CNS and in the assay with K-562 leukemia was over 100 µM throughout.
Consider `CCCN1C(=O)/C(=C/c2ccc(O)cc2)SC1=Nc1ccccc1`, for which the GI50 in the assay with MOLT-4 leukemia was over 100 µM; in the assay with SNB-19 CNS it was 21.1 µM; in the assay on NCI-H226 lung it was 30.3 µM; in the assay on ACHN renal, 18.2 µM; in the assay with HCC-2998 colon it was 22.9 µM; in the assay with MDA-MB-435 it was 21.6 µM. Moreover, the GI50 with SF-268 CNS is 17.1 µM; with K-562 leukemia it was 92.1 µM. Besides, the TGI was over 100 µM in the assay on MOLT-4 leukemia; 46.5 µM with SNB-19 CNS; 54.1 µM in the assay with NCI-H226 lung; 34.9 µM in the assay on ACHN renal; 47.4 µM with HCC-2998 colon; 41.5 µM in the assay with MDA-MB-435. The values for the TGI in the assay on SF-268 CNS and in the assay on K-562 leukemia were 32.4 µM and over 100 µM, respectively.
`Cc1ccc(C2=NN(C)COC2C(F)(F)F)cc1` (stereo not drawn): the TGI in the assay with MOLT-4 leukemia, with SNB-19 CNS, in the assay on NCI-H226 lung, in the assay on ACHN renal, with HCC-2998 colon and in the assay with SNB-75 CNS was over 100 µM in each case. Moreover, the TGI in the assay with SF-268 CNS and in the assay on K-562 leukemia was over 100 µM each time.
Consider `CCC12CC[C@H](C#N)N3CCc4c(n(c5ccccc45)C(=O)C1)C32` (stereo partly drawn), for which the TGI stood at 52 µM in the assay on MOLT-4 leukemia; 32.4 µM in the assay on HCC-2998 colon; 27.6 µM in the assay on SNB-75 CNS; 53.7 µM in the assay with SF-268 CNS; 35 µM in the assay with K-562 leukemia.
In the case of `O=C(O/N=C1/CCC/C1=C\c1ccccc1)c1ccccc1`, the TGI with MOLT-4 leukemia is 78.1 µM; in the assay with NCI-H226 lung, over 100 µM; in the assay with ACHN renal it was over 100 µM; with SNB-75 CNS, over 100 µM; in the assay with SF-268 CNS, over 100 µM; in the assay on K-562 leukemia it was over 100 µM.
Take `COc1ccc(C2c3cc4c(cc3OC(O)(CO)C2C(=O)O)OCO4)c(OC)c1OC` (stereo not drawn) (tested in a mixture with another compound): the TGI in the assay with MOLT-4 leukemia, in the assay on SNB-19 CNS, with ACHN renal, in the assay with SNB-75 CNS and in the assay with K-562 leukemia was over 100 µM in each case.
On to `CC1CC(C)C(=O)C(C(=O)CC2CC(=O)NC2=O)C1` (stereo not drawn), for which the TGI in the assay on SNB-19 CNS, with NCI-H226 lung, with ACHN renal, in the assay with HCC-2998 colon, in the assay with SNB-75 CNS and with SF-268 CNS was over 100 µM in each case. In the assay on K-562 leukemia, this molecule came in with a TGI of over 100 µM.
For `N#Cc1c(C(N)=O)ncn1Cc1ccccc1`, the TGI in the assay with MOLT-4 leukemia, in the assay on SNB-19 CNS, in the assay with NCI-H226 lung, with ACHN renal, in the assay on HCC-2998 colon and in the assay on SNB-75 CNS was over 100 µM throughout. Also, the TGI in the assay with SF-268 CNS and with K-562 leukemia was over 100 µM in each case.
As to `Cn1cc(C(=O)/C(Cl)=C(\Cl)C(=O)O)c2ccccc21`, the TGI in the assay with MOLT-4 leukemia, in the assay with NCI-H226 lung, in the assay with ACHN renal, with HCC-2998 colon, in the assay on SNB-75 CNS and in the assay on K-562 leukemia was over 100 µM each time.
On to `O=C(Nc1ccc(N=Nc2ccccc2)cc1)Sc1ccccc1C(=O)O`, for which the TGI in the assay with MOLT-4 leukemia, in the assay with SNB-19 CNS, in the assay on NCI-H226 lung, in the assay on ACHN renal, in the assay with HCC-2998 colon and in the assay with SNB-75 CNS was over 100 µM throughout. Besides, the TGI in the assay with SF-268 CNS and in the assay with K-562 leukemia was over 100 µM in each case.
As to `CC(=O)Oc1cc2c(=O)oc3c(OC(C)=O)c(OC(C)=O)c(OC(C)=O)c4c(=O)oc(c1OC(C)=O)c2c34`, the TGI with MOLT-4 leukemia is over 100 µM; in the assay on SNB-19 CNS, over 100 µM; with NCI-H226 lung, 99 µM; with ACHN renal, over 100 µM; in the assay on HCC-2998 colon, over 100 µM; in the assay on SNB-75 CNS it was over 100 µM. The TGI in the assay with SF-268 CNS and in the assay with K-562 leukemia was over 100 µM in each case.
Turning to `CC(=O)[CH-]C(C)=O.CC(=O)[CH-]C(C)=O.CC(=O)[CH-]C(C)=O.[Cl-].[Hf+4]`, the GI50 with MOLT-4 leukemia, in the assay on SNB-19 CNS, in the assay on NCI-H226 lung, with ACHN renal, in the assay on HCC-2998 colon and in the assay on SF-268 CNS was over 100 µM in each case. Also, in the assay with K-562 leukemia, the GI50 was over 100 µM. The TGI in the assay with MOLT-4 leukemia, in the assay with SNB-19 CNS, in the assay on NCI-H226 lung, with ACHN renal, with HCC-2998 colon and in the assay on SF-268 CNS was over 100 µM each time. In the assay on K-562 leukemia, this molecule showed a TGI of over 100 µM.
With `C/C(=N\[N+](C)(C)C)C(c1ccccc1)C1(c2ccccc2)C(c2ccccc2)=C1c1ccccc1` (stereo not drawn), the TGI in the assay with MOLT-4 leukemia was over 100 µM; in the assay with SNB-19 CNS, over 100 µM; in the assay on NCI-H226 lung, 93.4 µM; in the assay with ACHN renal, over 100 µM; with HCC-2998 colon, over 100 µM; with K-562 leukemia, over 100 µM.
On to `Cc1ccc(NC(=O)/C(=N/NC(=O)CC#N)C2C(=O)N(c3ccccc3)N=C2N)cc1C` (stereo not drawn), for which the TGI in the assay on MOLT-4 leukemia, in the assay with SNB-19 CNS, in the assay with NCI-H226 lung, in the assay on ACHN renal, with HCC-2998 colon and in the assay with SNB-75 CNS was over 100 µM throughout. Further, the TGI with SF-268 CNS and in the assay with K-562 leukemia was over 100 µM in each case.
As for `NC1=NN(c2ccccc2)C(=O)C1C(=O)C(=O)Nc1cccc(C(F)(F)F)c1` (stereo not drawn), the TGI in the assay with MOLT-4 leukemia, in the assay with SNB-19 CNS, with NCI-H226 lung, with ACHN renal, in the assay with HCC-2998 colon and in the assay with SF-268 CNS was over 100 µM throughout. In addition, the TGI in the assay on K-562 leukemia is over 100 µM.
Turning to `O=C(/C=C\c1cccc2ccccc12)c1ccc(Br)cc1`, the TGI in the assay with MOLT-4 leukemia was 82.2 µM; in the assay on SNB-19 CNS, 61.1 µM; in the assay with NCI-H226 lung it was over 100 µM; in the assay on ACHN renal, 31.2 µM; in the assay with HCC-2998 colon, 31.7 µM; with SNB-75 CNS, 56.3 µM. Moreover, the TGI in the assay on SF-268 CNS came out at 53.1 µM; with K-562 leukemia it was 44.2 µM.
On to `O[C@H]1[C@H]2[C@H](O)CCCN2C[C@H]1O`, for which the TGI in the assay on MOLT-4 leukemia, in the assay with SNB-19 CNS, in the assay with NCI-H226 lung, in the assay with ACHN renal, in the assay on HCC-2998 colon and in the assay with SNB-75 CNS was over 100 µM in each case. In addition, the TGI in the assay with SF-268 CNS was over 100 µM.
Consider `C/C=C/CP(=O)(c1ccccc1)c1ccccc1`, for which the TGI with MOLT-4 leukemia, with SNB-19 CNS, in the assay on NCI-H226 lung, in the assay with ACHN renal, in the assay on HCC-2998 colon and in the assay with SNB-75 CNS was over 100 µM each time. The same molecule returned a TGI in the assay on K-562 leukemia of over 100 µM.
As for `NC(=S)N/N=C1\C(=O)N(c2cccc([N+](=O)[O-])c2)C(=O)C1C(=O)Nc1cccc([N+](=O)[O-])c1` (stereo not drawn), the TGI with MOLT-4 leukemia, in the assay with SNB-19 CNS, in the assay with NCI-H226 lung, in the assay with ACHN renal, in the assay with HCC-2998 colon and in the assay with SNB-75 CNS was over 100 µM in each case. In addition, the TGI with SF-268 CNS and in the assay with K-562 leukemia was over 100 µM in each case.
Turning to `CCN(CC)CCCN1C(=O)c2c(c(C)c3c(oc4cc(O)ccc43)c2C)C1=O`, the GI50 in the assay on SNB-19 CNS is 1.75 µM; in the assay with NCI-H226 lung, 4.47 µM; in the assay on ACHN renal it was 1.68 µM; in the assay on HCC-2998 colon, 1.78 µM; in the assay with MDA-MB-435 it was 1.76 µM; with SNB-75 CNS, 1520 nM. Besides, the GI50 is 1.74 µM in the assay with SF-268 CNS and 0.188 µM in the assay on K-562 leukemia. The TGI came out at 3.35 µM with SNB-19 CNS; 27.4 µM in the assay with NCI-H226 lung; 3.05 µM in the assay on ACHN renal; 3.27 µM in the assay with HCC-2998 colon; 3.22 µM in the assay with MDA-MB-435; 2.91 µM in the assay with SNB-75 CNS. For the same molecule, the TGI was determined as 3.34 µM in the assay with SF-268 CNS and 0.464 µM in the assay with K-562 leukemia.
For `CC1(C)OC(=O)C=C(O)O1.CC1(C)OC(=O)C=C(O)O1.CCO.Oc1ccc2c(c1)CCC2.[Ti]`, the GI50 in the assay with MOLT-4 leukemia was over 100 µM; in the assay with SNB-19 CNS, 56.3 µM; with NCI-H226 lung it was over 100 µM; in the assay with ACHN renal, over 100 µM; in the assay on SNB-75 CNS, over 100000 nM; with SF-268 CNS, over 100 µM. For the same molecule, the GI50 with K-562 leukemia was over 100 µM. Further, the TGI in the assay on MOLT-4 leukemia, in the assay with SNB-19 CNS, in the assay with NCI-H226 lung, with ACHN renal, in the assay with SNB-75 CNS and with SF-268 CNS was over 100 µM in each case. Besides, the TGI in the assay with K-562 leukemia was over 100 µM.
